Source: publication PMC9629815, “MK256 is a novel CDK8 inhibitor with potent antitumor activity in AML through downregulation of the STAT pathway” (Oncotarget, 2022)
In brackets after ≈: the same amount, converted by molar mass. Where two headings read alike, the source gives them in different places.

Tests used:
[1] = test system: p-STATs, MCL-1, BCL-2, cleaved Parp, cleaved Caspase 3 in MOLM-14 cells; experiment: Western blot of STAT pathway and apoptosis markers in MOLM-14 cells; assay type: cell-based; design: targeted p-STATs and MCL-1 levels / expression of BCL-2: dose or concentration left out as unconfirmed
Method: For the in vitro western blot study, MV-4-11 and MOLM-14 cells were plated (6-well) at 5 × 10^5 cells per well with medium containing 1% FBS overnight. MK-256 was added in different concentrations at different time points. […] Total protein concentration was measured using the Pierce BCA protein Assay Kit (23227, Thermo Fisher Scientific). Proteins were separated on SDS-PAGE and transferred to Nitrocellulose membrane.

CCL2 mRNA in KG-1 cells = experiment: Real-time RT-PCR of CCL2 mRNA; assay type: cell-based
Method: (§1) Total RNA from the various cell lines was isolated using the RNeasy extraction method (Qiagen, Valencia, CA, USA). First-strand cDNA was synthesized from total RNA by iScript cDNA synthesis (Bio-Rad, Hercules, CA, USA) according to the manufacturer’s instructions. Taqman RT–PCR analysis was performed on cDNA in a 384-well plate, using a Prism 7900HT Real-Time PCR System (Applied Biosystems, Foster City, CA, USA). Primers and Taqman probes were purchased from Applied Biosystems. The expression of target genes MCL1 (Hs03043899_m1, Thermo fisher) and CCL2 (Hs00234140_m1, Thermo fisher) in each sample was assayed in triplicate and normalized to human GUSB for mRNA expression analysis. An unpaired t test was used to calculate statistical significance.

[2] = test system: CCL2 mRNA in MOLM-14 cells; experiment: Real-time RT-PCR of CCL2 mRNA; assay type: cell-based
Method: as §1

Kinetic solubility assay = assay type: physicochemical
Method: MK256 was supplied as DMSO stock at 10 mM. 190 μL of buffer solution (PBS, pH 7.4) was added to all wells on a 96-well Millipore Solubility filter plate. 10 μL of MK256 or control compound testosterone was transferred in triplicate to the buffer wells to a final concentration of 500 μM. The filter plate was shaken for 1.5 hours at room temperature. Samples were filtered via a vacuum system into a fresh 96-well plate. Compounds were diluted to 500 μM (highest concentration) in DMSO and further diluted 1:10 for calibration curve (three-point). HPLC/UV analysis was performed on all samples (220 nm, 254 nm, and 280 nm).

CYP1A2 = CYP1A2 (Homo sapiens, UniProt P05177); experiment: Cytochrome P450 inhibition assay; assay type: in vitro ADME; conditions: 50 uM
CYP1A2, sequence (P05177 whole entry): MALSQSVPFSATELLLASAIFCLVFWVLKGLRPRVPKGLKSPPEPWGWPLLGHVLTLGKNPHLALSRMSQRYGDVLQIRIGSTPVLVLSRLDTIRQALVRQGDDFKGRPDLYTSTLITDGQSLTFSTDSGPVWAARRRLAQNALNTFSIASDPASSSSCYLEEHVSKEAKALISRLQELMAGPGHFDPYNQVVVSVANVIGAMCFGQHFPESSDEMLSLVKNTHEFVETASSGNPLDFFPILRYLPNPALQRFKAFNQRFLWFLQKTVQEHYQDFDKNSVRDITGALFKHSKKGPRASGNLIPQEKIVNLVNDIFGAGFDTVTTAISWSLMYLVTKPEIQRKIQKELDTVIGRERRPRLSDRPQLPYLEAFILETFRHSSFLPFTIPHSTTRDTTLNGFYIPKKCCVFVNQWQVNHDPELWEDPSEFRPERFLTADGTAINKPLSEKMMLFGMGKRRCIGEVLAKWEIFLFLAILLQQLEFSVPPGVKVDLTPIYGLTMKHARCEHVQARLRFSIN

CYP2C19 = CYP2C19 (Homo sapiens, UniProt P33261); experiment: Cytochrome P450 inhibition assay; assay type: in vitro ADME; conditions: 50 uM
CYP2C19, sequence (P33261 whole entry): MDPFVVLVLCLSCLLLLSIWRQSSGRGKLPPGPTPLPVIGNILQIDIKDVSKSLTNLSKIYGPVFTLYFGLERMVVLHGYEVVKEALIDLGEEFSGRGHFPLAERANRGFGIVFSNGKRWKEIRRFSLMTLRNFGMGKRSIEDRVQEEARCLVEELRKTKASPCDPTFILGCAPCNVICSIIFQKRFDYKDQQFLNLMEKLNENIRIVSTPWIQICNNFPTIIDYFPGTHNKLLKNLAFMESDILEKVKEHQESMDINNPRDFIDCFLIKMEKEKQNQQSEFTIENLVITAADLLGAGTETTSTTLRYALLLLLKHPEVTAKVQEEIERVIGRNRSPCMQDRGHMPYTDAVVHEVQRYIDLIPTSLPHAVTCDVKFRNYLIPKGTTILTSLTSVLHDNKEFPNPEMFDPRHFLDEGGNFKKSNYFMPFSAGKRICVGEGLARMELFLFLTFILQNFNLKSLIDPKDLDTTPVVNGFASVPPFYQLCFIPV

CYP3A4-TS = CYP3A4-TS (Homo sapiens, UniProt P08684); experiment: Cytochrome P450 inhibition assay; assay type: in vitro ADME; conditions: 50 uM
CYP3A4-TS, sequence (P08684 whole entry): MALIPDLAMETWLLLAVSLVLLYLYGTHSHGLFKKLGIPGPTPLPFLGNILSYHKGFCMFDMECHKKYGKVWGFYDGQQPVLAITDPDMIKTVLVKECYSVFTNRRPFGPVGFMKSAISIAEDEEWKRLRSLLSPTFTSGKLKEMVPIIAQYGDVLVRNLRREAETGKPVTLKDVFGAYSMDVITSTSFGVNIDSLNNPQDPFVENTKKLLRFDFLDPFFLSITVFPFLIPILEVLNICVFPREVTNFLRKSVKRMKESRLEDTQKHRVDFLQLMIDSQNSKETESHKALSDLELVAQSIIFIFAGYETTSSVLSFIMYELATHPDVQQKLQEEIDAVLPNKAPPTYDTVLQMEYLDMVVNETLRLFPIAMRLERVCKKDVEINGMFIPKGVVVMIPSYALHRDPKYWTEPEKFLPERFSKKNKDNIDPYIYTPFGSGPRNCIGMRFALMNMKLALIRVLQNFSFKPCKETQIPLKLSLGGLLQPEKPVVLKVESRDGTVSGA

hERG = hERG (Homo sapiens, UniProt Q12809); experiment: hERG safety assay; conditions: 30 uM
hERG, sequence (Q12809 whole entry): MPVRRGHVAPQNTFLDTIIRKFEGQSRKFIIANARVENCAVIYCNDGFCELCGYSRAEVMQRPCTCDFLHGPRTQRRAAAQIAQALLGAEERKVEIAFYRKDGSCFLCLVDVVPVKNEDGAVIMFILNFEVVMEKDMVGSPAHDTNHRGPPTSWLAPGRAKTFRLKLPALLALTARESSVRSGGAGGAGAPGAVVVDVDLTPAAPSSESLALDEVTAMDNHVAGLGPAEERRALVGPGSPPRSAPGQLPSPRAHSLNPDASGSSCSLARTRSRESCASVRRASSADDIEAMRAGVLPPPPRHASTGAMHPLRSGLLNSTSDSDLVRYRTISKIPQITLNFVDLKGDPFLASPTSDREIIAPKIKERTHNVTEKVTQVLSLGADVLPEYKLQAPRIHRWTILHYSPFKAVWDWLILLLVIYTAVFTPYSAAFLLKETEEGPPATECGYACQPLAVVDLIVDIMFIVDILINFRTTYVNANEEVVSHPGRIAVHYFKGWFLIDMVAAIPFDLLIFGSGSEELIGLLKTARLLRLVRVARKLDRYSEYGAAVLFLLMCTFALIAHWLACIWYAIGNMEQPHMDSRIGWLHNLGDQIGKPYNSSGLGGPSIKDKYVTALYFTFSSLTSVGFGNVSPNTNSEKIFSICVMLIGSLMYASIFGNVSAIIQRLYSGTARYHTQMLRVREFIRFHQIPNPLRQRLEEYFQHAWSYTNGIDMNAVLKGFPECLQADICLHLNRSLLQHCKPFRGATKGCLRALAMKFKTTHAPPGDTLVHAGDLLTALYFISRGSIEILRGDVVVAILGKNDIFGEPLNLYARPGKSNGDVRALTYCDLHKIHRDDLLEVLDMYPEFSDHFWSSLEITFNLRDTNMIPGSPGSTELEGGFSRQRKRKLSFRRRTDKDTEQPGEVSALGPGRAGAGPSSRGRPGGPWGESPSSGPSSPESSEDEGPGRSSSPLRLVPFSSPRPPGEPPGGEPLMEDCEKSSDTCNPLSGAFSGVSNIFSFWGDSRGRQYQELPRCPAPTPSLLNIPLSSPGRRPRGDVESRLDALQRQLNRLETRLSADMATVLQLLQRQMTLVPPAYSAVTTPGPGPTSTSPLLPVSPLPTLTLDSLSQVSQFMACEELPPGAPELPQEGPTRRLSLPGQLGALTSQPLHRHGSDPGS

[3] = test system: p-STAT1 (S727), p-STAT3(S727), p-STAT5(S726) in MOLM-14 xenograft tumors; experiment: Pharmacodynamics study in MOLM-14 xenograft model (western blot of tumors); assay type: in vivo, mice; conditions: 10, 50 and 100 mg/kg oral, 6 hrs; with higher doses
Method: For the in vivo western blot study, to assess gene expression in vivo, tumors were induced in female NOD SCID mice by s.c. inoculation of 5 × 10^6 AML cells suspended in matrigel. Mice bearing tumors of at least 100 mm^3 were treated with MK256. Mice were sacrificed after 6 hrs and tumors were harvested. The tumors were homogenized and lysed in T-per Mammalian Protein Extraction Reagent (78510, Thermo Fisher Scientific) containing protease and phosphatase inhibitors (88669, Thermo Fisher Scientific). Total protein concentration was measured using the Pierce BCA protein Assay Kit (23227, Thermo Fisher Scientific). Proteins were separated on SDS-PAGE and transferred to Nitrocellulose membrane. Immunoblotting was performed using specific antibodies. The following specific antibodies were used: Cell signaling technology: pSTAT1(S727) #8826, pSTAT1(Y701) #9167, STAT1 #14994, pSTAT3 (S727) #9134, pSTAT3(Y705) #9145, STAT3 #9139, pSTAT5(Y694) #4322, STAT5 #25656, b-ACTIN #3700, GAPDH #5174, BCL2 #4223, MCL-1 #94296, Cleaved PARP #9541, Cleaved Caspase3 #9661, IL6ST #12859, SmyD3 #3732, PD-L1 #13684. Invitrogen: IL6R PA5109855. Abcam: pSTAT5(S726) ab128896.

Which “levels of cleaved Parp and cleaved Caspase 3” value ([1]; 30 nM to 3 mM, 48 hr) does the source give for `Nc1nccc2c(Br)cc3cc(C(=O)O)ccc3c12` [MK256] here?
The value was “dose-dependent upregulation”.

What about the “p-levels of STATs, time course” value ([1]; 300 nM, 4 hrs and 24 hrs) of the same compound?
The value was “further downregulated in a time-dependent manner”.

And the “p-STAT1 (S727), p-STAT3(S727), p-STAT5(S726) levels” value ([1]; 2-hrs, various concentrations)?
The value was “dose-dependent inhibitions”.

And the MCL-1 level ([1]; 2 hrs)?
The MCL-1 level was “downregulated”.

And the “expression of BCL-2” value ([1]; 48 hr)?
Its value is “unexpected upregulation”.

What about the “targeted p-STATs and MCL-1 levels” value ([1]; 48 hr) of the same compound?
The value was “dose-dependent inhibition”.

And the “expression of CCL2 downregulated to” value (CCL2 mRNA in KG-1 cells; 300 nM)?
The value was “approximately 50%”.

And the “expression of CCL2 downregulated to” value (CCL2 mRNA in KG-1 cells; 1 uM)?
Its value is about 40%.

And the “mRNA level of CCL2” value ([2]; 1 uM)?
The value was “abolished”.

And the mrna remaining at 0.3 µM ([2]; Homo sapiens, MOLM-14, 300 nM, read-out: mRNA level of CCL2 (remaining))?
Its mrna remaining at 0.3 µM is about 5%.

And the solubility kinetic at 1.5 h (Kinetic solubility assay; PBS buffer, aqueous buffer, kinetic from dmso stock, pH 7.4, read-out: KSOL (μM) PBS (PH 7.4))?
The solubility kinetic at 1.5 h was 566 µM (≈ 180 µg/mL).

And the solubility kinetic at 1.5 h (Kinetic solubility assay; PBS, pH 7.4, read-out: KSOL (μM) PBS (PH 7.4))?
Its solubility kinetic at 1.5 h is 566 µM (≈ 180 µg/mL).

And the “cytochrome P450 inhibition” value (CYP1A2)?
The value was “no inhibition”.

What about the “cytochrome P450 inhibition” value (CYP2C19) of the same compound?
Its value is “no inhibition”.

What about the “cytochrome P450 inhibition” value (CYP3A4-TS) of the same compound?
Its value is “no inhibition”.

What about the “inhibition of hERG” value (hERG) of the same compound?
Its value is “no inhibition”.

What about the “expression levels of p-STAT1 (S727), p-STAT3(S727), p-STAT5(S726) in tumors” value [3] of the same compound?
The value was “further downregulated”.
